Data taken from patent publication US20250154180A1, “CRK-LIKE (CRKL) ADAPTOR PROTEIN INHIBITORS AND METHODS OF MAKING AND USING THE SAME” (Rutgers, The State University of New Jersey, priority 2022, published 2025).

Columns and labels:
[1] = test system: CrkL (phosphorylation at Y207 by Ab1); test: AlphaScreen of Ab1 phosphorylation of CrkL at Y207; type: biochemical; conditions: positive hits defined as a 50% decrease in Alpha signal vs DMSO
Hs578T cells = test: MTT proliferation assay, Hs578T; type: cell-based; conditions: 2.5 μM, 48 hours, vs DMSO
Description: (§1) MTT assay—The MTT assay was used to detect cell proliferation. Briefly, cells were plated in a 96-well plate at a density of 50,000 cells/well in 200 μl of culture medium with candidate drugs to be tested (DMSO as a negative control). The treated cells were incubated for four hours a 37° C. with a 5% CO2 incubator to allow dark crystals to form at the bottom of the wells. After culturing for 48 hours, 10 ml of MTT reagent was added to each well and mixed gently for one minute. After aspirating the culture medium from each well, 100 μl of crystal dissolving solution was added to each well and incubated for 10 minutes at RT. The signal was quantified by measuring the absorbance in each sample at 570 nm using a microplate reader.

Ab1 = Ab1 (Homo sapiens, UniProt P00519); test: Thermal shift assay, Ab1; type: binding
Sequence of Ab1 (P00519 whole entry): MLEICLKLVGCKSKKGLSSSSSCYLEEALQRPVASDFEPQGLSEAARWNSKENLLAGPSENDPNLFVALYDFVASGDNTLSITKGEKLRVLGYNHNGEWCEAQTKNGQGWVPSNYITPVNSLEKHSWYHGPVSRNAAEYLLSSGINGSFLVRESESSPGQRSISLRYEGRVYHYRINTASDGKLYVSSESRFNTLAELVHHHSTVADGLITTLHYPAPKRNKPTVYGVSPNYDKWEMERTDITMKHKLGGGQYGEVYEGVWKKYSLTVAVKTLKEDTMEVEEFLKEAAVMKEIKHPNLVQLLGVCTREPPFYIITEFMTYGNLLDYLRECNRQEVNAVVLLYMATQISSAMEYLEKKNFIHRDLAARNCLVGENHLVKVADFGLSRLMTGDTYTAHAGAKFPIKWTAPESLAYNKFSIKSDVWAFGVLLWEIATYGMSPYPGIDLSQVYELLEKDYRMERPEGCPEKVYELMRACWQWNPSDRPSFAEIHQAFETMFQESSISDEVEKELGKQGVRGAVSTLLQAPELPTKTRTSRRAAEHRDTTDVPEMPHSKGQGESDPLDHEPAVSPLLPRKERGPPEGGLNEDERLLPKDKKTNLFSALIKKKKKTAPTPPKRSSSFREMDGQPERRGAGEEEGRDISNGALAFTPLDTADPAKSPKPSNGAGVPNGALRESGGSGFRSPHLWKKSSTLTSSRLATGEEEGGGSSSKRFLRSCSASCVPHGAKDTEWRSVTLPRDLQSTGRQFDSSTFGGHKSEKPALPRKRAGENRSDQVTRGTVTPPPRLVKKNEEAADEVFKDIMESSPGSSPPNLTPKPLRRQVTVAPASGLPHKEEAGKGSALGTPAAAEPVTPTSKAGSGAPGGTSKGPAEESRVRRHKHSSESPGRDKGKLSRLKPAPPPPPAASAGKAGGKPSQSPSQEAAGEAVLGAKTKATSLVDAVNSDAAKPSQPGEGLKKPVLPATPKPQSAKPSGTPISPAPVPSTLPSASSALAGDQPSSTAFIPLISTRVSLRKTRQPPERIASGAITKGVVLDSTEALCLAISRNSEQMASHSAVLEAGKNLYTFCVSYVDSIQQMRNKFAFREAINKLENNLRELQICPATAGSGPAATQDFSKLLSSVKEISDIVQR
Description: Thermal Shift Assay—Thermal shift assay is a thermal-denaturation assay, which can measure the thermal stability of a tested protein. When a protein of interest is bound to a ligand (or drug), its melting temperature increases. For each single well assay, CrkL (1 μg per well), SYPRO® Orange (1:500 dilution from original stock), candidate drugs (same final concentration as in AlphaScreen) and reaction buffer (1×TBS) were mixed. The total volume for a single well was 10 ul. The assay was quantified by a melt curve on a real-time PCR machine, using melting temperatures from 20° C. to 95° C.
In a thermal shift assay, each tested protein (purified Ab1 or CrkL) has a melting temperature (Tm) detected by a protein stain dye such as Sypro Orange. […] An increase of 2° C. or greater in Tm (stable increase in three independent experiments) was defined as a positive result in these thermal shift assays.

MDA-MB-468 cells = test: MTT proliferation assay, MDA-MB-468; type: cell-based
Description: as §1, with “After culturing for 48 hours, 10 ml of MTT reagent was added to each well and mixed gently for one minute.” left out
(§2) Cell proliferation was first determined by MTT assay as confirmation. […] CrkL is known to mediate the activation of both Raf/ERK and PI3K pathways. So, proteins that relate to these two pathways were utilized.

[2] = test system: PBNK cells killing activity towards SK-Hep1; test: Cr51 release assay, PBNK killing of SK-Hep1; type: cell-based; conditions: 1 uM overnight
Description: PBNK cells were incubated with 1 uM NC5 or Compound III overnight, then cells were harvested for Cr51 release assay to check cell cytotoxicity. […] The star symbol indicates the significance of vehicle control vs. NC5 of the indicated E:T ratios. *p<0.05, **p<0.01, n=3.

PBMCs = test: MTT assay, PBMCs from healthy donors; type: cell-based, human
Description: Peripheral blood mononuclear cells (PBMCs, line with the symbol □) were used to determine the specificities of the cytotoxic effects of Pomiferin. The survival curve of PBMC-average is from four different healthy donors. […]
as §1, with “After culturing for 48 hours, 10 ml of MTT reagent was added to each well and mixed gently for one minute.” left out

HCC HepG2 cells = test: MTT proliferation assay, HepG2; type: cell-based; conditions: 48 hours
Description: as §1

[3] = test system: hematopoietic cancer cell lines (K562, NK92-MI, Daudi, KHYG-1); test: MTT assay, hematopoietic cancer cell lines; type: cell-based; conditions: five M Pomiferin for three days; compared with MDA-MD-231-LUC
Description: as §1, with “After culturing for 48 hours, 10 ml of MTT reagent was added to each well and mixed gently for one minute.” left out
To further test the inhibitory specificity of Pomiferin for specific breast cancer cell lines, The survival percentage was compared between different hematopoietic cancer cell lines and healthy PBMCs.

[4] = test system: pCrkL, P-ERK1/2, pJNK, BIM in MDA-231 and MDA-468 cells; test: Western blotting of pCrkL and downstream proteins, breast cancer cells; type: cell-based
Description: Western blotting—According to the company's protocol (Thermo Scientific, Waltham, MA). Western blotting was performed using 20 μg of total cell extracts. Briefly, transferred membranes were incubated with primary antibodies for […] according to the sensitivity of each antibody, followed by HRP-linked secondary antibody for 1 hour. Each membrane was stripped and re-probed for b-actin, which was used as an internal loading control. The protein bands were visualized using a chemiluminescence detection system (Thermo Scientific). The relative optical densities of each band were quantitated and indicated numerically below the bands in each Western blot.
as §2, with “To investigate the molecular mechanisms of Pomiferin-induced apoptosis in breast cancer cells. […] Cell” for “Cell”
The Integrated Density Values (IDV) of each band were measured and shown under each blot. […] Inhibition of pCrkL breaks the balance of cell proliferation and death in triple-negative breast cancer cells by regulating these signaling transduction pathways (FIG. 15). The different expression of these proteins in TNBC vs. normal immune cells makes Pomiferin and compounds disclosed herein a candidate for cancer therapy.

Thermodynamic solubility = type: physicochemical; conditions: thermodynamic from solid
Description: In this example, solubility measurement assays were performed using a phosphate buffer (also referred to as “PB”) system and a water system to evaluate thermodynamic solubility. The PB system was at a pH of 7.4 to mimic in vivo environments. For the PB system, the values were determined to be NC5: Thermodynamic Solubility pH=7.4<0.42 μg/mL; Compound III: Thermodynamic Solubility pH=7.4<0.48 μg/mL; and Compound I: Thermodynamic Solubility pH=7.4<0.48 μg/mL. Results for the water assay were as follows: NC5: Thermodynamic Solubility Water<0.42 μg/mL; Compound III: Thermodynamic Solubility Water<0.48 μg/mL; and Compound I: Thermodynamic Solubility Water<0.48 μg/mL.

CC(C)=CCc1c2c(c3occ(-c4ccc(O)c(O)c4)c(=O)c3c1O)C=CC(C)(C)O2 [Pomiferin, 3′,4′,5-Trihydroxy-6″,6″-dimethyl-6-(3-methylbut-2-en-1-yl)-6″H-pyrano[2″,3″:7,8]isoflavone]
AlphaScreen hit (inhibition of Crk phosphorylation) [1]: identified hit | cell proliferation (MTT) (Hs578T cells): had an inhibitory effect on proliferation | binding to Ab1 versus Crk (thermal shift) (Ab1): specifically binds to Crk, but not Ab1 proteins | cell proliferation (MTT) (MDA-MB-468 cells; 1 uM, 5 uM and 10 uM, 24 hours): significantly inhibited cell proliferation | cell proliferation (MTT) (MDA-MB-468 cells; 2.5 μM, 48 hours, vs DMSO): inhibited cell proliferation | PBNK cells killing activity (Cr51 release) [2]: increased PBNK cells killing activity | cell proliferation (MTT) (PBMCs; 1 uM, 5 uM and 10 uM, 24 hours): no statistical difference | IC50 (PBMCs; Homo sapiens, 72 h, MTT, three days, PBMC average of four healthy donors): > 18 µM | sensitivity to Pomiferin (survival percentage, MTT) (PBMCs; five M Pomiferin for three days, compared with MDA-MD-231-LUC): more resistant to Pomiferin inhibition | concentration at which HepG2 cell proliferation starts to be significantly inhibited (HCC HepG2 cells): one | sensitivity to Pomiferin (survival percentage, MTT) [3]: more resistant to Pomiferin inhibition | P-ERK1/2 levels (Western blotting) ([4]; NC5 1, 5, 10 uM, 24 hours): reduces P-ERK1/2 levels | pCrkL levels (Western blotting) ([4]; NC5 1, 5, 10 uM, 24 hours): dramatically inhibited | BIM levels (Western blotting) ([4]; NC5, 24 hours): dramatically increased | pJNK levels (Western blotting) ([4]; NC5, 24 hours): dramatically increased | solubility thermodynamic (Thermodynamic solubility; pH 7.4, aqueous buffer): < 0.42 µg/mL | solubility thermodynamic (Thermodynamic solubility; water): < 0.42 µg/mL
